In ChEMBL document CHEMBL3508140 (2016):

How the values were obtained:
[1] = Increase in serum triglycerides level following intravenous idarubicin at 0.3 mg.Kg-1 per week in rat; format: toxicity, organism-based, SD; parameters: dose 0.3 mg.Kg-1, dosed compound id 2.46809e+06, dosed compound name Idarubicin, dose level Low, gender Mixed, regimen Once per week, route intravenous, sampling time 8-22 Week, study doses 0/0.3/0.6/1 mg.Kg-1; details: in vivo
[2] = Incidence of persistent proteinuria following intravenous idarubicin at 0.3 mg.Kg-1 per week in rat; format: toxicity, organism-based, SD; parameters: dose 0.3 mg.Kg-1, dosed compound id 2.46809e+06, dosed compound name Idarubicin, dose level Low, gender Mixed, regimen Once per week, route intravenous, sampling time 36 Week, study doses 0/0.3/0.6/1 mg.Kg-1; details: in vivo
[3] = Increase in serum total cholesterol level following intravenous idarubicin at 0.6 mg.Kg-1 per week in rat; format: toxicity, organism-based, SD; parameters: dose 0.6 mg.Kg-1, dosed compound id 2.46809e+06, dosed compound name Idarubicin, dose level Intermediate, gender Mixed, regimen Once per week, route intravenous, sampling time 8-22 Week, study doses 0/0.3/0.6/1 mg.Kg-1; details: in vivo
[4] = Volume of distribution of 4-dem-daunorubicin following intravenous 4-dem-daunorubicin at 1.0 mg.Kg-1 dose in dog; format: ADME, organism-based, Canis lupus familiaris; parameters: dose 1 mg.Kg-1, dosed compound id 2.46809e+06, dosed compound name Idarubicin, route intravenous; details: Beagle, plasma
[5] = Plasma clearance of 4-dem-daunorubicin following intravenous 4-dem-daunorubicin at 1.0 mg.Kg-1 dose in dog; format: ADME, organism-based, Canis lupus familiaris; parameters: dose 1 mg.Kg-1, dosed compound id 2.46809e+06, dosed compound name Idarubicin, route intravenous; details: Beagle, read-out: Clp
[6] = Mortality occurred following intravenous idarubicin at 0.6 mg.Kg-1 per week in rat; format: toxicity, organism-based, SD; parameters: dose 0.6 mg.Kg-1, dosed compound id 2.46809e+06, dosed compound name Idarubicin, dose level Intermediate, gender Mixed, regimen Once per week, route intravenous, sampling time 13 Week, study doses 0/0.3/0.6/1 mg.Kg-1; details: in vivo
[7] = (§1) Decrease in leukocytes observed following intravenous idarubicin at 0.3 mg.Kg-1 per week in rat; format: toxicity, organism-based, SD, Blood; parameters: dose 0.3 mg.Kg-1, dosed compound id 2.46809e+06, dosed compound name Idarubicin, dose level Low, gender Mixed, regimen Once per week, route intravenous, sampling time 8 Week, study doses 0/0.3/0.6/1 mg.Kg-1; details: in vivo
[8] = as §1; format: toxicity, organism-based, SD, Blood; parameters: dosed compound id 2.46809e+06, dosed compound name Idarubicin, dose level Low, gender Mixed, route intravenous, sampling time 4 Week, study doses 0/0.3/0.6/1 mg.Kg-1; details: in vivo
[9] = Terminal half-life of 4-dem-daunorubicin following intravenous 4-dem-daunorubicin at 1.0 mg.Kg-1 dose in dog; format: ADME, organism-based, Canis lupus familiaris; parameters: dose 1 mg.Kg-1, dosed compound id 2.46809e+06, dosed compound name Idarubicin, route intravenous; details: Beagle, plasma
[10] = Decrease in albumin due to persistent proteinuria following intravenous idarubicin at 0.6 mg.Kg-1 per week in rat; format: toxicity, organism-based, SD, Serum; parameters: dose 0.6 mg.Kg-1, dosed compound id 2.46809e+06, dosed compound name Idarubicin, dose level Intermediate, gender Mixed, regimen Once per week, route intravenous, sampling time 36 Week, study doses 0/0.3/0.6/1 mg.Kg-1; details: in vivo
[11] = Incidence of leukocyturia following intravenous idarubicin at 0.3 mg.Kg-1 per week in rat; format: toxicity, organism-based, SD; parameters: dose 0.3 mg.Kg-1, dosed compound id 2.46809e+06, dosed compound name Idarubicin, dose level Low, gender Mixed, regimen Once per week, route intravenous, sampling time 36 Week, study doses 0/0.3/0.6/1 mg.Kg-1; details: in vivo
[12] = Increase in serum total cholesterol level following intravenous idarubicin at 0.3 mg.Kg-1 per week in rat; format: toxicity, organism-based, SD; parameters: dose 0.3 mg.Kg-1, dosed compound id 2.46809e+06, dosed compound name Idarubicin, dose level Low, gender Mixed, regimen Once per week, route intravenous, sampling time 8-22 Week, study doses 0/0.3/0.6/1 mg.Kg-1; details: in vivo
[13] = Incidence of persistent proteinuria following intravenous idarubicin at 0.6 mg.Kg-1 per week in rat; format: toxicity, organism-based, SD; parameters: dose 0.6 mg.Kg-1, dosed compound id 2.46809e+06, dosed compound name Idarubicin, dose level Intermediate, gender Mixed, regimen Once per week, route intravenous, sampling time 36 Week, study doses 0/0.3/0.6/1 mg.Kg-1; details: in vivo
[14] = (§2) Decrease in leukocytes observed following intravenous idarubicin at 0.6 mg.Kg-1 per week in rat; format: toxicity, organism-based, SD, Blood; parameters: dosed compound id 2.46809e+06, dosed compound name Idarubicin, dose level Intermediate, gender Mixed, route intravenous, sampling time 8 Week, study doses 0/0.3/0.6/1 mg.Kg-1; details: in vivo
[15] = Decrease in albumin due to persistent proteinuria following intravenous idarubicin at 0.3 mg.Kg-1 per week in rat; format: toxicity, organism-based, SD, Serum; parameters: dose 0.3 mg.Kg-1, dosed compound id 2.46809e+06, dosed compound name Idarubicin, dose level Low, gender Mixed, regimen Once per week, route intravenous, sampling time 36 Week, study doses 0/0.3/0.6/1 mg.Kg-1; details: in vivo
[16] = Increase in serum triglycerides level following intravenous idarubicin at 0.6 mg.Kg-1 per week in rat; format: toxicity, organism-based, SD; parameters: dose 0.6 mg.Kg-1, dosed compound id 2.46809e+06, dosed compound name Idarubicin, dose level Intermediate, gender Mixed, regimen Once per week, route intravenous, sampling time 8-22 Week, study doses 0/0.3/0.6/1 mg.Kg-1; details: in vivo
[17] = as §2; format: toxicity, organism-based, SD, Blood; parameters: dose 0.6 mg.Kg-1, dosed compound id 2.46809e+06, dosed compound name Idarubicin, dose level Intermediate, gender Mixed, regimen Once per week, route intravenous, sampling time 4 Week, study doses 0/0.3/0.6/1 mg.Kg-1; details: in vivo
[18] = Incidence of leukocyturia following intravenous idarubicin at 0.6 mg.Kg-1 per week in rat; format: toxicity, organism-based, SD; parameters: dose 0.6 mg.Kg-1, dosed compound id 2.46809e+06, dosed compound name Idarubicin, dose level Intermediate, gender Mixed, regimen Once per week, route intravenous, sampling time 36 Week, study doses 0/0.3/0.6/1 mg.Kg-1; details: in vivo
[19] = Increase in serum phospholipid level following intravenous idarubicin at 0.3 mg.Kg-1 per week in rat; format: toxicity, organism-based, SD; parameters: dose 0.3 mg.Kg-1, dosed compound id 2.46809e+06, dosed compound name Idarubicin, dose level Low, gender Mixed, regimen Once per week, route intravenous, sampling time 8-22 Week, study doses 0/0.3/0.6/1 mg.Kg-1; details: in vivo
[20] = Increase in serum phospholipid level following intravenous idarubicin at 0.6 mg.Kg-1 per week in rat; format: toxicity, organism-based, SD; parameters: dose 0.6 mg.Kg-1, dosed compound id 2.46809e+06, dosed compound name Idarubicin, dose level Intermediate, gender Mixed, regimen Once per week, route intravenous, sampling time 8-22 Week, study doses 0/0.3/0.6/1 mg.Kg-1; details: in vivo

## CC(=O)[C@]1(O)Cc2c(O)c3c(c(O)c2[C@@H](O[C@H]2C[C@H](N)[C@H](O)[C@H](C)O2)C1)C(=O)c1ccccc1C3=O [IDARUBICIN]
[1]
  TRIG_CHANGE: OUTCOME = Increased
[2]
  Incidence: OUTCOME = Observed
[3]
  CHOL_CHANGE: OUTCOME = Increased
[4]
  Vd: 34.5 L/kg
[5]
  clearance: 711 mL/min
[6]
  Mortality: OUTCOME = Observed, N_AFFECTED = 12
[7]
  WBC_CHANGE: 35%
[8]
  WBC_CHANGE: 35%
[9]
  half-life: 6 min
[10]
  ALB_CHANGE: OUTCOME = Decreased
[11]
  Incidence: OUTCOME = Observed
[12]
  CHOL_CHANGE: OUTCOME = Increased
[13]
  Incidence: OUTCOME = Observed
[14]
  WBC_CHANGE: 55%
[15]
  ALB_CHANGE: OUTCOME = Decreased
[16]
  TRIG_CHANGE: OUTCOME = Increased
[17]
  WBC_CHANGE: 50%
[18]
  Incidence: OUTCOME = Observed
[19]
  PHOSLPD_CHANGE: OUTCOME = Increased
[20]
  PHOSLPD_CHANGE: OUTCOME = Increased
